Measurements published in patent US5670506A, “Halogen, isothiocyanate or azide substituted xanthines” (Cell Therapeutics, Inc., priority 1993, dated 1997).

What was measured:
murine splenocytes = assay: inhibition of murine splenocyte proliferation stimulated by anti-mu and IL-4; format: cell-based; conditions: FIG. 5; anti-mu (10 μg/ml) and IL-4 (12.5 ng/ml)
Procedure: Drug was added to the cells at the doses indicated two hours prior to activation with anti-mu and IL-4. This in vitro assay is a model for immune suppression and treatment or prevention of autoimmune diseases. […] Background counts were less than 200 cpm.
There are a series of in vitro assays that can be used to measure immunosuppressive activity of a particular compound. These assays are a predictive model for treatment or prevention of autoimmune diseases, such as diabetes, lupus, arthritis, and the like. A first assay measures immunosuppressive activity of a drug at the B cell level. Spleens from adult mice contain immature B cells that express surface IgM. Cross-linking the surface IgM with an anti-mu antibody results in B cell proliferation. Additionally, this activation results in an increased expression of interleukin-4 receptors(IL-4R) on the surface of such cells. IL-4 acts as a growth factor for B cells and will increase the amount of proliferation induced by anti-mu. In the first assay, a mixture of anti-mu and murine IL-4 is added to murine splenocytes to cause their proliferation. Mice spleens are obtained from adult mice and a single cell suspension is prepared in RPMI 1640 medium supplemented with 10% FCS. […] Proliferation is determined on the third day with a pulse of tritiated thymidine. […]

murine thymocytes = assay: inhibition of murine thymocyte proliferation stimulated by ConA and IL-1α; format: cell-based, murine (Balb/C mice); conditions: FIG. 4, 4 days
Procedure: The drugs (inventive compounds) were added to the cells at the doses indicated two hours prior to activation with ConA and IL-1α. […] Background counts were less than 200 cpm. This in vitro assay is a model for immune suppression and treatment or prevention of autoimmune diseases.
A third assay measures an ability of an inventive compound to inhibit IL-2-induced proliferation of murine thymocytes. Thymus glands are obtained from 4-6 week old mice and plated as a single cell suspension into flat bottomed wells in RPMI 1640 medium supplemented with 10% fetal calf serum. The inventive compounds are added to appropriate wells and the cells are incubated for 1-2 hrs. Concanavilin A (ConA, 0.25 μg/ml) and IL-1 (20 ng/ml) are added and the plates are incubated for 4 days. Cell proliferation is determined as above. There are also variations for this assay that follow the same basic stimulation and measure inhibition of proliferation format. […]
This example illustrates the effect of CT1514, CT1525, CT1527, CT1529, CT1577, CT1583, CT1589, CT1595, CT2519, CT1205, CT1801 and CT1908 on inhibition of murine thymocyte proliferation stimulated by Concanavalin A (ConA) and interleukin-2 (IL-2) (FIG. 4). […] The cells were harvested and incorporated tritiated thymidine was determined in a liquid scintillation counter. […]

human stromal cells = assay: inhibition of proliferation of human stromal cells stimulated with PDGF; format: cell-based
Procedure: (§1) This assay is a model for restenosis and treatment of atherosclerosis and coronary artery disease. Stromal cells were starved in serum-free media for one day and then stimulated with 50 ng/ml PDGF-BB. The drags were added at the indicated concentrations one hour prior to PDGF stimulation. Tritiated thymidine was added for one day at the time of PDGF stimulation and the cells were harvested and counted by liquid scintillation counting 24 hrs later. Background counts (i.e., starved cells) were approximately 1% of control levels.
Another assay for measuring activity of the inventive compounds involves determining PDGF (platelet derived growth factor) proliferative response using human-derived stromal cells. Human stromal cells are plated (e.g., about 2000 cells per well) in defined media (e.g., 69% McCoy's, 12.5% fetal calf serum, 12.5% horse serum, 1% antibiotics, 1% glutamine, 1% vitamin supplement, 0.8% essential amino acids, 1% sodium pyruvate, 1% sodium bicarbonate, 0.4% non-essential amino acids and 0.36% hydrocortisone). Two to three days later, the stromal cells are starved in serum-free media. Twenty four hours later, the cells are treated with a stimulating agent, such as PDGF-AA, PDGF-BB or basic FGF (fibroblast growth factor) with or without IL-1α or TNF, and tritiated thymidine. Cell proliferation is determined by liquid scintillation counting.
as §1, with “drugs” for “drags”

With `Cn1cnc2c1c(=O)n(CCCCC(=O)CCl)c(=O)n2C` [CT1595, 1-(6-chloro-5-oxohexyl)-3,7-dimethylxanthine] the “inhibition of splenocyte proliferation” value (murine splenocytes) was “most potent inhibitors of splenocyte proliferation in a dose-response manner”, the “inhibition of thymocyte proliferation” value (murine thymocytes) was “most potent drugs” and the “inhibition of human stromal cell proliferation” value (human stromal cells; FIG. 7, 50 ng/ml PDGF-BB, in words) was “strongly inhibit proliferation”. For the same molecule, the IC50 (human stromal cells; Homo sapiens, read-out: IC50, inhibition of human stromal cell proliferation) was < 10 µM.
